Results published in patent US11696960B2, “Methods and compounds for detection and binding of aldehydes” (UNIVERSITY OF OTTAWA, priority 2017, dated 2023).

Key:
[1] = Hydrazone formation kinetics under pseudo-first order conditions in 1×PBS at 37° C.; conditions: carbonyl acetaldehyde
Description: The carboxylic acid ortho to the hydrazine is critical to the stability of the formed hydrazone product. All reactions were performed in 1×PBS at 37° C., and points represent mean±s.d. for n=3 trials. […]

[2] = Hydrazone formation kinetics and reaction completion in 1×PBS at 37° C.; conditions: for kobs: pseudo-first order, carbonyl o-sulfobenzaldehyde
Description: (§1) The hydrazone peak is shown (r.t.=17.5 min for MeONA^3 and 17.2 min for MeOPH) at the time points indicated, showing a loss of the MeOPH-derived hydrazone but stability of the MeONA^3-derived product over time. All reactions were performed in 1×PBS at 37° C., and points represent mean±s.d. for n=3 trials
FIG. 13, discussed above, illustrates that the o-carboxylic acid contributes to substantial reaction completion as well as extended stability of the product hydrazone under physiological conditions. […] The hydrazone peak is shown (r.t.=17.5 min for 2f and 17.2 min for MeOPH) at the time points indicated. All reactions were performed in 1×PBS at 37° C., and points represent mean±s.d. for n=3 trials.
(§2) Repeating the methodology, however at 37° C. in 100% 1×PBS, determined the kobs for the reaction of 5-methoxy N-amino anthranilic acid (2f) and related analogs with 2-formylbenzenesulfonic acid (FIG. 13) and acetone.
(§3) Hydrazone stability was assayed both spectrophotometrically (FIG. 13, Panel A), as well as by HPLC (FIG. 13, Panel B). […] Since the signal produced by Hydrazo-CEST depends on the hydrazone form of the probe, the faster-forming and longer-lived the hydrazone product under physiological conditions, the better the imaging signal evolved and the more potentially sensitive the imaging technique.

[3] = as above
Description: as §2, §3

[4] = Hydrazone formation with glucose under physiological conditions (interference test); conditions: 37° C., 1 PBS, pH=7.4, within 4 h of incubation
[5] = Z-spectra / CEST signal production (% MTRasym) on 300 MHz NMR; conditions: for CEST-MRI signal generation (in words): Z-spectra, 37° C., pH 7.4, 40 mM; for CEST signal production: hydrazone with o-sulfobenzaldehyde, Z-spectrum (FIG. 19)
Description: FIG. 27 provides Z-spectra of compounds 8b, 10a, 12, and 11 for Panels A to D, respectively. […] The absence of the hydrazone proton through the formation of a pyrazole also completely abolishes CEST-MRI signal (Panel D). Raw data points (S/So are shown as black circles), exchangeable proton and water Lorentzian curves, and CEST-MRI signal production MTRasym (%), are also shown. All Z-spectra are obtained at 37° C. and pH 7.4 with 40 mM compound solutions in 10:1 PBS:D2O unless otherwise indicated.
Electron donating (OH, OCH3) and electron-withdrawing (I, SO3, NO2) substituents were appended at the 5-position of N-amino anthranilic acid (compounds 2b-2f), both acetaldehyde (4b-4f) or 2-formylbenzenesulfonic acid-derived hydrazones (3b-3f) were prepared, and Z-spectra were acquired in 1:10 D2O:PBS at pH 7.4 on a 300 MHz NMR.
In this way, per molar signal output could be compared across hydrazone series to examine electronic contributions to Hydrazo-CEST.
(§4) The MRI contrast produced by CEST probes is dependent upon voxel-wise concentration, however previous investigations have reported non-linear concentration relationships for CEST contrast agents. In order to evaluate this dependence for Hydrazo-CEST compounds, Z-spectra were acquired for acetaldehyde (4b-4f) and 2-formylbenzenesulfonic acid-derived hydrazones (3b-3f) on a 300 MHz NMR from 5 mM to 40 mM, or the maximum solubility of the compound in neutral buffer. The dynamic range for Hydrazo-CEST signal production from each compound was then plotted using the maximum signal for each compound (6.4±0.4 ppm). Within the series of acetaldehyde-derived hydrazones, the 5-methoxy- (4f) and 5-hydroxy-substituted (4e) analogs had the broadest dynamic range for imaging signal, with the 5-methoxy-derivative showing the higher absolute % MTRasym and the most linear concentration-dependent signal production (R^2=0.98).
Z-spectra were acquired on a 300 MHz NMR in 10:1 PBS:D2O at 37° C., pH 7.4, at 40 mM, or the indicated concentration providing maximum solubility. Hydrazones were formed between 2f and (Panel A) 3-aminopropanal, (Panel B) crotonaldehyde, (Panel C) glyceraldehyde, and (Panel D) pyruvate.

[6] = Hydrazo-CEST MRI phantom imaging (3 T and 7 T) and in situ hydrazone formation
Description: In the upper panel, a Phantom image and Z-spectra of hydrazine 2f and hydrazones 3f and 4f were acquired at the indicated field strength, 37° C., pH 7.4, and 40 mM concentration.
Values indicate the % MTRasym±the standard deviation of the off-resonance measurements once the system had reached steady state.
The kinetics of Hydrazo-CEST signal production through hydrazone formation were also evaluated in the MRI at 37° C. in 1×PBS at pH=7.4 (FIG. 28). Either PBS or a PBS solution of 2-formylbenzenesulfonic acid at a final concentration of 20 mM was injected into the imaging phantom, and Z-spectra were acquired every 4.5 min to monitor hydrazone formation.
A single saturation peak at 6.4 ppm was observed 4.5 min after aldehyde injection. […] This MRI data confirms that Hydrazo-CEST probes are rapidly activated by aldehydes under physiological conditions, and are readily detectable by 7 T MRI. Both hydrazine and hydrazone functionalities are utilized in medications broadly spanning indications from anti-infectives and anti-parasitics, to anti-cancer agents.

[7] = Preliminary in vitro toxicity assays
[8] = Solubility of hydrazones in buffer; format: physicochemical
Description: as §4
In addition to local probe concentrations, micro-environmental pH can modify CEST signal production, as pH directly impacts ksw. The effect of pH on % MTRasym was evaluated for the unsubstituted, 5-hydroxy-, and 5-methoxy-substituted hydrazones derived from acetaldehyde (4a, 4e, 4f) and 2-formylbenzenesulfonic acid (3a, 3e, 3f). […] The hydroxy- and methoxy-substituted aryl-hydrazones (3e, 3f) gave better CEST signal production from pH 6.5-8.0, but both were insoluble at 40 mM at pH 6.0. The differential pH responses associated with the Hydrazo-CEST probes studied are justified by the higher predicted electron density around the ring-proximal nitrogen of the aliphatic versus aromatic hydrazones, which would favor the protonated form of the hydrazo moiety at higher pH values.

[9] = Hydrazone product stability (spectrophotometric, HPLC); format: physicochemical; conditions: 1×PBS, 37° C.
Description: as §1
The carboxylic acid ortho to the hydrazine is critical to the stability of the formed hydrazone product. All reactions were performed in 1×PBS at 37° C., and points represent mean±s.d. for n=3 trials.
as §3

[10] = Trapping of MDA by N-amino anthranilic acid probe, monitored by 1H-NMR and fluorimetry; conditions: incubation of NA^3 acid probe and MDA, 1H-NMR
Description: N-amino anthranilic acids can act as specific sensors for malondialdehyde. N-amino anthranilic acid reacts rapidly with MDA to form a fluorescent pyrazole. A proposed 2-step reaction scheme for the formation of the MDA-derived pyrazole (5) from 5-methoxy-N-amino anthranilic acid (3) is shown:
The formation of the MDA-derived pyrazole ring was monitored by ^1H-NMR. Hydrazone (4) formation happens within less than 1 min of incubation of the NA^3 acid probe and MDA. The pyrazole product (5) forms rapidly as well, and reaches completion within 20 min. The fluorescence ‘turn-on’ of the N-amino anthranilic acid probe is specific for MDA.

[11] = Time-lapse imaging of acetaldehyde-derived hydrazone formation in PBS; conditions: room temperature
Description: N-Amino anthranilic esters can be fast-reacting aldehyde sensors. N-amino anthranilate methyl ester reacts rapidly with endogenous reactive aldehydes. The reaction of 5-methoxy-N-amino anthranilate methyl ester (1) with a reactive aldehyde results in the formation of […] in PBS at room temperature is shown: […]

[12] = reaction with butanal, 1:10 DMF:PBS solution; cited from earlier work
[13] = system: hippocampal CA3 neurodegeneration; conditions: TMT rat model, Wood et al. (2006); cited from earlier work

SMILES: COc1ccc(NN)c(C(=O)O)c1 [Compound 2f, 5-methoxy N-amino anthranilic acid]
- kobs [1]: 0.012 ± 0.001 min⁻¹
- kobs [2]: 0.112 ± 0.03 min⁻¹
- reaction completion (hydrazone formation) ([2]; within 30 min of initiation): ~90%
- kobs ([3]; pseudo-first order, 37° C., carbonyl acetone): 0.017 ± 0.0004 min⁻¹
- product formation ([3]; reaction with acetone, 37° C. (data not shown)): < 25%
- hydrazone formation with D-glucose [4]: no hydrazone formation
- CEST-MRI signal generation (in words) [5]: little CEST-MRI signal
- maximum plateau % MTRasym ([6]; 40 mM hydrazine plus 20 mM 2-formylbenzenesulfonic acid, 37° C., 1×PBS, pH 7.4): 4.6±0.7 % MTRasym
- CEST contrast in MRI (in words) ([6]; 37° C., pH 7.4, 40 mM): produced no CEST contrast
- Hydrazo-CEST signal as share of maximal signal ([6]; within the first 4.5 min after aldehyde injection): > 50%
- in vitro toxicity [7]: initial safety

SMILES: O=C(O)c1ccccc1NN=Cc1ccccc1S(=O)(=O)O [Compound 3a]
- CEST signal production [5]: ~5%

SMILES: COc1ccc(NN=Cc2ccccc2S(=O)(=O)O)c(C(=O)O)c1 [Compound 3f]
- solubility ([8]; 40 mM, pH 6.0): insoluble
- stability of hydrazone product [9]: long-term stability

SMILES: CC=NNc1ccccc1C(=O)O [Compound 4a]
- solubility ([8]; neutral buffer): limited solubility beyond 20 mM
- solubility ([8]; pH 6.0-8.0): completely soluble

SMILES: C/C=N/Nc1ccc(OC)cc1C(=O)O [Compound 4f]
- MTRasym ([5]; 5 mM): 9%
- CEST-MRI signal generation (in words) [5]: substantial signal
- solubility ([8]; 40 mM, pH 6.5): not soluble

SMILES: COc1ccc(-n2cccn2)c(C(=O)O)c1 [Compound 5]
- time to completion of pyrazole product formation [10]: ≤ 20 min
- CEST-MRI signal generation (in words) [5]: Complete abolishment of signal production

SMILES: COc1ccc(N/N=C/C(O)CO)c(C(=O)O)c1 (stereo not shown) [Compound 5c]
- CEST-MRI signal generation (in words) [5]: limited signal production

SMILES: COC(=O)c1cc(OC)ccc1NN [Compound 7, 5-methoxy-N-amino anthranilate methyl ester, reference compound]
- kobs [2]: 0.0008 ± 5.5e-05 min⁻¹
- time to hydrazone formation after aldehyde addition [11]: ≤ 1 s

SMILES: C/C=N/Nc1ccc(OC)cc1C(=O)OC [Compound 8b, reference compound]
- CEST-MRI signal generation (in words) [5]: complete loss of the CEST effect
- CEST-MRI signal generation (in words) ([5]; listed as compound 302): prevents any CEST-MRI signal generation

SMILES: COc1ccc(NN)cc1.Cl.Cl [Compound 9, 4-methoxyphenyl hydrazine dihydrochloride, reference compound]
- kobs [2]: 0.119 ± 0.02 min⁻¹

SMILES: O=C(O)c1cccc(O)c1 [Compound 12, 3-Hydroxybenzoic acid, reference compound]
- CEST-MRI signal generation (in words) [5]: nearly completely abolishes signal production

SMILES: NNc1ccccc1C(=O)O [Compound 101, N-amino anthranilic acid]
- pseudo-first-order rate constant (kobs) [12]: 1.5 ± 0.2 min⁻¹

SMILES: O=C(O)c1cccnc1N/N=C/c1ccccc1S(=O)(=O)O [Compound 319]
- CEST signal production [5]: ~25%

SMILES: ONCc1ccccc1 [N-benzylhydroxylamine]
- protection against neurodegeneration [13]: provided protection against neurodegeneration
